Reference: article PMC8569227 (Frontiers in Plant Science, 2021)
Several values for one entry are separate records, joined by “and”; a condition that tells them apart may be missing. Equal entries are not always repeated. Where two headings read alike, the source gives them in different places.

Assays:
[1] = target: T1, Arabidopsis thaliana AOX1A (rAtAOX1A) (Arabidopsis thaliana, UniProt Q39219); type: biochemical; conditions: for Fold change of oxygen consumption rate of rAtAOX1A vs control / Effect on oxygen consumption rate of rAtAOX1A (in words): 10 mM effector, membrane-bound protein, 1 mM NADH; for Fold change of oxygen consumption rate of rAtAOX1A vs control: 1 mM KCN (Figure 5C); for Effect on oxygen consumption rate of rAtAOX1A (in words): 1 mM KCN (Figure 5)
T1 sequence (Q39219 63-354): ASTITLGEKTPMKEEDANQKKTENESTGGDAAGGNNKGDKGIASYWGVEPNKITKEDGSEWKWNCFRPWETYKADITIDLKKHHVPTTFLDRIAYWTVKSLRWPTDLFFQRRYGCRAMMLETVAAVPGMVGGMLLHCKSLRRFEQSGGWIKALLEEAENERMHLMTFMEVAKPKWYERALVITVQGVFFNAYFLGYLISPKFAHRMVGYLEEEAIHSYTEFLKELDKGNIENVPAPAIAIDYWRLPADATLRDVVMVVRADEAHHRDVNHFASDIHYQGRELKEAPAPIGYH

[2] = target: T1, Arabidopsis thaliana AOX1A (rAtAOX1A); assay: biochemical; conditions: rAtAOX1A IC50, membrane-bound protein, 300 μM NADH, MOPS buffer pH 7.5
[3] = target: T1, Arabidopsis thaliana AOX1A (rAtAOX1A); type: biochemical
Method: (§1) Kinetic analysis of the purified rTAO and rAtAOX1A was performed spectrophotometrically using a Cary 4000 UV spectrophotometer (Varian, UK Ltd, Surrey UK) with the packaged software. All assays were performed in 65 mM MOPS buffer pH 7.5 with different concentrations of quinol-1 as the substrate, measuring the conversion of Q1H2 (ubiquinol-1) to Q1 (ubiquinone-1) at 278 nm (ε = 15,000 M^−1 cm^−1). Q1 was reduced to Q1H2 prior to experimentation via sonication with zinc powder under an inert atmosphere for ~10 min, with the resultant zinc then being removed via centrifugation at 2,000 g.

[4] = target: T2, recombinant Trypanosoma brucei AOX (rTAO) (Trypanosoma brucei brucei, UniProt Q26710); assay: Quinol kinetics of purified rTAO, Q1H2 oxidation at 278 nm; type: biochemical; conditions: MOPS pH 7.5
T2 sequence (Q26710 25-329): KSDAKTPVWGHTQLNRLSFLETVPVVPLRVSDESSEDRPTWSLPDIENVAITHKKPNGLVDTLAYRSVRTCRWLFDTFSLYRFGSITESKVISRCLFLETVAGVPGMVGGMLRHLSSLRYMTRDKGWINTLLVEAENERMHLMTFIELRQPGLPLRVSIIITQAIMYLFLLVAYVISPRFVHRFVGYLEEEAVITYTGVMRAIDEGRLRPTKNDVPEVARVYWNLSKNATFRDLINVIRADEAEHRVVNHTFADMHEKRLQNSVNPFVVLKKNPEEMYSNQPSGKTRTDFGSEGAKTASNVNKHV
Method: as §1

[5] = target: T2, recombinant Trypanosoma brucei AOX (rTAO); type: biochemical
[6] = target: T2, recombinant Trypanosoma brucei AOX (rTAO); assay: biochemical; conditions: rTAO IC50, membrane-bound protein, 300 μM NADH, MOPS buffer pH 7.5

Nc1ncnc2c1ncn2[C@@H]1O[C@H](COP(=O)(O)OP(=O)(O)O)[C@@H](O)[C@H]1O [ADP, adenosine diphosphate]
Fold change of oxygen consumption rate of rAtAOX1A vs control [1]: 1.4 fold

C/C(=C\Cc1c(O)c(Cl)c(C)c(C=O)c1O)CC/C=C(\C)[C@@H]1CC(=O)C(C)(C)O1 [AF, ascofuranone]
IC50 [2]: 6.21 nM

COc1c(O)c(C)c(CC=C(C)C)c(O)c1OC [Q1H2, ubiquinol-1]
Km ([3]; purified rAtAOX1A, without pyruvate, MOPS pH 7.5, read-out: Km for Q1H2, rAtAOX1A): 26 µM | Km [4]: 451 µM

O=CC(=O)O [glyoxylate]
Fold change of oxygen consumption rate of rAtAOX1A vs control [1]: more than 7 fold

CC(=O)C(=O)O [pyruvate]
Fold change of oxygen consumption rate of rAtAOX1A vs control [1]: more than 7 fold | Respiratory rate of rAtAOX1A with vs without pyruvate ([1]; 10 mM pyruvate, membrane samples, 1.25 mM NADH (Figure 4)): ~ 6 fold | Change of Km for O2 of rAtAOX1A ([1]; 10 mM pyruvate, membrane-bound protein (Figure 4)): increased Km value for O2 | Activation of oxygen consumption rate of rTAO (in words) ([5]; 10 mM effector, membrane-bound protein): but not that of rTAO | Change of Km for Q1H2 of rAtAOX1A ([3]; 10 mM pyruvate during purification and in the assay, purified protein): remained unchanged | Change of Vmax of rAtAOX1A ([3]; 10 mM pyruvate during purification and in the assay, purified protein, Q1H2 substrate): increased approximately five times

O=C(O)CCC(=O)O [succinate]
Effect on oxygen consumption rate of rAtAOX1A (in words) [1]: dramatically promoted

O=O [O2, oxygen]
Km ([1]; membrane samples, 25°C, 1.25 mM NADH, without pyruvate, read-out: Km for O2, rAtAOX1A): 2.41 µM | Km ([5]; membrane samples, 25°C, 1.25 mM NADH, without pyruvate, read-out: Km for O2, rTAO): 1.15 µM

CCCCCCCCOC(=O)c1cc(O)c(O)c(O)c1 [OG, octylgallate]
IC50 [6]: 417 nM | IC50 [2]: 1580 nM

CC(/C=C/[C@@]1(C)[C@H](C)CCC(=O)[C@@H]1C)=C\Cc1c(O)c(Cl)c(C)c(C=O)c1O [AC, ascochlorin]
IC50 [6]: 3.8 nM and 3.7 nM | IC50 [2]: 14.7 nM

CC(C)=CCc1c(O)c(Cl)c(C)c(C=O)c1O [CD, colletochlorin D]
IC50 [6]: 3.73 nM and 3.8 nM | IC50 [2]: 5.76 nM

O=C(O)CC(=O)C(=O)O [oxaloacetate]
Effect on oxygen consumption rate of rAtAOX1A (in words) [1]: dramatically promoted

CCC(=O)O [propanoic acid]
Effect on oxygen consumption rate of rAtAOX1A (in words) [1]: no stimulation

CC(C)=CCC/C(C)=C/Cc1c(O)c(Cl)c(C)c(C=O)c1O [CB, colletochlorin B]
IC50 [2]: 2.82 nM and 2.8 nM

Nc1nc2c(ncn2[C@@H]2O[C@H](COP(=O)(O)OP(=O)(O)O)[C@@H](O)[C@H]2O)c(=O)[nH]1 [GDP]
Fold change of oxygen consumption rate of rAtAOX1A vs control [1]: 1.4 fold

O=C(NO)c1ccccc1O [SHAM, salicylic hydroxamic acid]
IC50 [2]: 33000 nM

CC(=O)O [acetic acid]
Effect on oxygen consumption rate of rAtAOX1A (in words) [1]: no stimulation
